From PMC7308192 (Journal of biomolecular structure & dynamics, 2019)
Values joined by “and” are separate entries in the source; they are usually repeats but may differ in a detail not shown here. Identical values can stand only once. Like-named read-outs stand apart in the source and are kept apart here. Each block holds one molecule with its values, some of them ahead of it.

B3: Twinstrep-AtGPA1 (natural protein, Arabidopsis, UniProt P18064 1-383, looked up)
chain: MGLLCSRSRHHTEDTDENTQAAEIERRIEQEAKAEKHIRKLLLLGAGESGKSTIFKQIKLLFQTGFDEGELKSYVPVIHANVYQTIKLLHDGTKEFAQNETDSAKYMLSSESIAIGEKLSEIGGRLDYPRLTKDIAEGIETLWKDPAIQETCARGNELQVPDCTKYLMENLKRLSDINYIPTKEDVLYARVRTTGVVEIQFSPVGENKKSGEVYRLFDVGGQRNERRKWIHLFEGVTAVIFCAAISEYDQTLFEDEQKNRMMETKELFDWVLKQPCFEKTSFMLFLNKFDIFEKKVLDVPLNVCEWFRDYQPVSSGKQEIEHAYEFVKKKFEELYYQNTAPDRVDRVFKIYRTTALDQKLVKKTFKLVDETLRRRNLLEAGLL
B5: XLG2 C terminal Gα domain (residues from 435 to 861) (domain or fragment, Arabidopsis, UniProt C6KIE6 435-861, looked up)
chain: CAVFSLPVPPASSAVEPYDVPLYEQKMLNKLLLIGSEKGGATTIYKQARSLYNVSFSLEDRERIKFIIQTNLYTYLAMVLEAHERFEKEMSNDQSSGNVGDETSAKPGNSINPRLKHFSDWVLKEKEDGNLKIFPPSSRENAQTVADLWRVPAIQATYKRLRDTLPRNAVYFLERILEISRSEYDPSDMDILQAEGLSSMEGLSCVDFSFPSTSQEESLESDYQHDTDMKYQLIRLNPRSLGENWKLLEMFEDADLVIFCVSLTDYAENIEDGEGNIVNKMLATKQLFENMVTHPSLANKRFLLVLTKFDLLEEKIEEVPLRTCEWFEDFNPLISQNQTSRHNPPMAQRAFHYIGYKFKRLYDSILEPVNMRGRSFKPKLFVCQVSLESDTVDNALRYAREILKWHVEETSMFQEMSTTSIEASSSS

Experiments:
[1] = biological target: T1, XLG2 (Arabidopsis thaliana, UniProt C6KIE6); assay: Microscale thermophoresis; format: binding
T1 sequence (C6KIE6 435-861): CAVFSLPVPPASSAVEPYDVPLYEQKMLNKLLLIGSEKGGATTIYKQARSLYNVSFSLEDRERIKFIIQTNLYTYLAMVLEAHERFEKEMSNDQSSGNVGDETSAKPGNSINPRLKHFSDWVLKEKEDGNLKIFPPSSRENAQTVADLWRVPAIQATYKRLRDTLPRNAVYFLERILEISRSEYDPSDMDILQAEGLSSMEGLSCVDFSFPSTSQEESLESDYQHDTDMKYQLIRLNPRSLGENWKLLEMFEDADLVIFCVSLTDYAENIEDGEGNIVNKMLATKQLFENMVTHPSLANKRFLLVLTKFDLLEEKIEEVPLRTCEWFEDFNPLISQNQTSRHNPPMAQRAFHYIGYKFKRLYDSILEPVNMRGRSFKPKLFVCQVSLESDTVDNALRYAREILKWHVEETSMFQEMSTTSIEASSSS

[2] = biological target: T2, AtGPA1 (Arabidopsis thaliana, UniProt P18064); conditions: read-out: Kd for GTPγS binding to AtGPA1 using a radioactive ligand, ref Johnston, Willard, Kimple, Siderovski, 2008; cited from earlier work
T2 sequence (P18064 1-383): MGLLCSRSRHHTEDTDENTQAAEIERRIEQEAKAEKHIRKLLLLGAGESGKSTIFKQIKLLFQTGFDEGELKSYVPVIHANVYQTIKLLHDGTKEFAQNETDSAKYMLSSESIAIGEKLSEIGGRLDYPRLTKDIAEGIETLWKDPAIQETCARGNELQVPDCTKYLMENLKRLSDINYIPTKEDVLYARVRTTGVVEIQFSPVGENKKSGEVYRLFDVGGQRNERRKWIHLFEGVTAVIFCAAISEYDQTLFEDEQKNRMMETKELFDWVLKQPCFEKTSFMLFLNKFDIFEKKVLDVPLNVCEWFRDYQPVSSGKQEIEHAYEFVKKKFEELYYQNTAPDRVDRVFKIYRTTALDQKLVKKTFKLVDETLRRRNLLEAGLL

[3] = biological target: animal G subunits; conditions: read-out: range of Kds reported for animal G subunits; ref Malinski, Zera, Angleson, & Wensel, 1996; cited from earlier work
[4] = biological target: T2, AtGPA1; assay: Microscale thermophoresis; format: binding
[5] = biological target: B3; assay: MST
[6] = biological target: B5; assay: MST
[7] = biological target: B3; assay: MST; remark: listed apart in the source
[8] = biological target: T3, Arabidopsis Gβγ dimer (AGB1/AGG1) (Arabidopsis, UniProt P49177 1-377; Q9FDX9 1-98); assay: MST
T3 sequence (looked up) 1: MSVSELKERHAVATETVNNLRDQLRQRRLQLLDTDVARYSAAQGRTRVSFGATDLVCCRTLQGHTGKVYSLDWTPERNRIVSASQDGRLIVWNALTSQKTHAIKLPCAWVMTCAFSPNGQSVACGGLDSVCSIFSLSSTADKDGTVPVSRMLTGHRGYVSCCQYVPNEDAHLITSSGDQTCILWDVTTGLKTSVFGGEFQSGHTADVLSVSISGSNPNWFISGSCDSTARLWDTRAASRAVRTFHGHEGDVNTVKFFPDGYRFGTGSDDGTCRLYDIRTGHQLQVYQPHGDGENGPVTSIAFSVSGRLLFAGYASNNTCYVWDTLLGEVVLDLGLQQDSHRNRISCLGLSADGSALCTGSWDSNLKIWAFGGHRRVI
T3 sequence (looked up) 2: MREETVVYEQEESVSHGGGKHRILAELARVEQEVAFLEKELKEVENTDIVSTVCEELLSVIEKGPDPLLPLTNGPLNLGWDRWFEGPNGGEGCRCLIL

[9] = Kd, nucleotide binding to XLG2, MST, 25°C, in the presence of Mg2+
[10] = Kd, nucleotide binding to XLG2 in the presence of Ca2+, MST, Ca2+ instead of Mg2+
[11] = Kd, nucleotide binding to AtGPA1, MST, 25°C, polyHis-tagged AtGPA1

Molecule: Nc1nc2c(ncn2[C@@H]2O[C@H](COP(=O)(O)OP(=O)(O)OP(O)(O)=S)[C@@H](O)[C@H]2O)c(=O)[nH]1 [GTPγS]
affinity of XLG2 lower than that of AtGPA1 / canonical Gα subunits ([1]; Kd XLG2 vs AtGPA1, same conditions): 100 times | Kd ([1]; Kd, nucleotide binding to XLG2, MST, 25°C, Mg2+): 2350 ± 460 nM | Kd [1, 9]: ~2000 nM | Kd [1, 10]: ~186000 nM | Kd [2]: ~2 nM | Kd [3]: 10 to 100 nM | Kd [4, 11]: ~21 nM and 21 nM

Molecule: Nc1nc2c(ncn2[C@@H]2O[C@H](COP(=O)(O)OP(=O)(O)O)[C@@H](O)[C@H]2O)c(=O)[nH]1 [GDP, guanosine diphosphate]
affinity of XLG2 lower than of AtGPA1 ([1]; Kd XLG2 vs AtGPA1): ~ 6 fold | Kd [1, 9]: 177000 ± 33000 nM | Kd [1, 10]: ~28000 nM | Kd [4, 11]: 28000 ± 12000 nM

Kd [5]: 67 nM | Kd [6]: 198 nM | Kd [7]: 125 nM
B1: RGS+Ct (AtRGS1, residues from 284 to 459) (domain or fragment, Arabidopsis, UniProt Q8H1F2 284-459, looked up)
chain: KEEFRPVDPNEPLDKLLLNKRFRHSFMEFADSCYAGETLHFFEEVYEHGKIPEDDSIRRIYMARHIMEKFIVAGAEMELNLSHKTRQEILTTQDLTHTDLFKNALNEVMQLIKMNLVRDYWSSIYFIKFKEEESCHEAMHKEGYSFSSPRLSSVQGSDDPFYQEHMSKSSRCSSPG

affinity of XLG2 for RGS domain lower than AtGPA1 in its transition state ([1]; XLG2 vs AtGPA1 in transition state): about 2 times
B2: RGS1-C domain: recombinant C-terminal RGS domain of Arabidopsis AtRGS1, residues from 284 to 459 (protein)
chain: KEEFRPVDPNEPLDKLLLNKRFRHSFMEFADSCYAGETLHFFEEVYEHGKIPEDDSIRRIYMARHIMEKFIVAGAEMELNLSHKTRQEILTTQDLTHTDLFKNALNEVMQLIKMNLVRDYWSSIYFIKFKEEESCHEAMHKEGYSFSSPRLSSVQGSDDPFYQEHMSKSSRCSSPG
modifications: left off: His, end not stated, cleaved | GST, end not stated, cleaved

Molecule: B3
Kd [8]: 2000 nM

Kd ([1]; read-out: Kd, Gβγ binding to XLG2 Gα domain, MST, column head: Gα in GDP state): ~700 nM and 700 nM | Kd ([4]; read-out: Kd, Gβγ binding to AtGPA1, Gα in GDP state, MST, Gα in GDP state): ~2000 nM and 2000 nM
B4: Gβγ: Arabidopsis Gβγ dimer (AGB1/AGG1), His tagged, expressed in Sf9 cells (protein)
chain 1: MSVSELKERHAVATETVNNLRDQLRQRRLQLLDTDVARYSAAQGRTRVSFGATDLVCCRTLQGHTGKVYSLDWTPERNRIVSASQDGRLIVWNALTSQKTHAIKLPCAWVMTCAFSPNGQSVACGGLDSVCSIFSLSSTADKDGTVPVSRMLTGHRGYVSCCQYVPNEDAHLITSSGDQTCILWDVTTGLKTSVFGGEFQSGHTADVLSVSISGSNPNWFISGSCDSTARLWDTRAASRAVRTFHGHEGDVNTVKFFPDGYRFGTGSDDGTCRLYDIRTGHQLQVYQPHGDGENGPVTSIAFSVSGRLLFAGYASNNTCYVWDTLLGEVVLDLGLQQDSHRNRISCLGLSADGSALCTGSWDSNLKIWAFGGHRRVI
chain 2: MREETVVYEQEESVSHGGGKHRILAELARVEQEVAFLEKELKEVENTDIVSTVCEELLSVIEKGPDPLLPLTNGPLNLGWDRWFEGPNGGEGCRCLIL
modifications: left off: His6, N-terminal, state not stated | His6, end not stated, state not stated

Molecule: B5
Kd [8]: 700 nM
